According to paper PMC10266688 (PLOS ONE, 2023):

Assays:
[1] = Tissue distribution in CD1 mice, LC-MS/MS; format: in vivo, mouse; details: 40 mg/kg IV
Procedure: Tissue homogenates were prepared at a concentration of 200 mg/mL in PBS. After vortex-mixing and centrifuging for 5 min at 2700 rpm. […] Mobile phase A was water containing 0.1% formic acid, and mobile phase B was acetonitrile containing 0.1% formic acid. The gradient started with mobile phase B at 20% and was held at 20% for 0.5 min with a flow rate of 0.3 mL/min, then increased to 100% over 0.5 minutes and held for 2.0 min, and finally returned back to 20% mobile phase B and allowed to equilibrate until 4.1min. […] The lower limit of quantitation (LLOQ) in plasma was 10 ng/mL.
A) ES2 cells stably transduced with the 4UbFL reporter plasmid were treated with compounds at indicated doses for 4 h. The cells were then washed, lysed and their luminescence measured by a luminometer after addition of luciferin. B) Female CD1 mice electroporated with 4UbFL plasmid in their leg muscle. After 48 h, the mice were injected with luciferin, imaged by IVIS for their basal bioluminescence and randomized into two groups of five. […] D) Up284 tissue distribution. […] Up284 levels in tissue samples were analyzed by HPLC. E) Up284 pharmacokinetics. […] Blood was collected at indicated time points thereafter and analyzed for Up284 levels by HPLC.
Up284 levels were analyzed in all major tissues (brain, colon, heart, kidney, liver, lung and spleen) by liquid chromatography–mass spectrometry (LC–MS/MS).

[2] = Microsomal stability, human liver microsomes; format: in vitro ADME; details: for % Drug Remaining NADPH Neg, Human Liver Microsomes / % Drug Remaining NADPH Pos, Human Liver Microsomes: 10 μM
Procedure: (§1) An incubation mixture with, and without NADPH-generating system, as well as a neat solution prepared without microsomes and NADPH-generating system was used. […] All reactions were initiated with the addition of Up284. Incubations were performed in glass tubes maintained at 37°C in a shaker bath. At 0, 30, and 60 minutes, 10 μL samples were withdrawn from the reaction mixture, and 0.5 mL of acetonitrile containing internal standard was added to each. Samples were vortex-mixed and subjected to centrifugation for 5 min at 1430 x g. A 10 μL aliquot of the supernatant was injected onto the LC-MS/MS instrument for qualitative analysis using a temperature-controlled autosampling device operating at 5°C.

[3] = mouse, in vivo, iv, 20 mg/kg
Procedure: The mice were divided into three groups consisting of three female CD1 mice each. […] Terminal blood sampling for hematological and serum biochemical analysis was performed on Day 7 of the study, 24 h after the last dosing. […] Terminal bleeding and euthanasia were performed on Day 7, 24 h after the third dosing. Blood collection was carried out after 6 h fasting. Animals were injected IP with 2,2,2-tribromoethanol (200 mg/kg) and the blood was collected from orbital sinuses into dry microtainers without anticoagulant. For the serum collection, the tubes with collected blood were held at RT for 15–60 min after blood drawing to form a clot, and then were centrifuged at 9000 rpm for 20 min at 4°C. The collected serum was frozen within 60–80 min after blood drawing and was stored at -20°C for further clinical chemistry analysis. For the hematological study, 25 μL of fresh blood was quickly mixed with an equal volume of 0.36% solution of K2EDTA in saline. Assessment of the hematological parameters was performed using the BIO TE hematology analyzer MCL-3124 and consumable reagents (Cormay) within 2 h of the blood draw. For clinical chemistry analyses, ASAT, ALAT, ALP, LDH, GGT, CK, Creatinine, Urea and TP were determined in the serum using commercial kits according to the manufacturer’s instructions.

[4] = Microsomal stability, mouse liver microsomes; format: in vitro ADME; details: for % Drug Remaining NADPH Neg, Mouse Liver Microsomes / % Drug Remaining NADPH Pos, Mouse Liver Microsomes: 10 μM
Procedure: as §1

ES2 cells = assay: Seahorse assay (OCR, ECAR)
cellular DUB enzymes = assay: Total cellular DUB activity, Ub-AMC cleavage, SKOV3 cells; details: 5 μM, 1 h
[5] = tested on: ES2-luc human ovarian tumor; assay: ES2-luc xenograft model, nude mice; format: in vivo, mouse; details: 10 mg/kg IP every 3 days
Procedure: Female Nude mice were inoculated IP with 1x10^6 ES2-luc in 100 μL PBS. At day 3, mice were imaged for basal level luminescence activity with a Xenogen IVIS 200 after IP injection with luciferin (0.3 mg in 100 μL water). Mice were randomized into groups and treated IP with compounds or vehicle (25% (w/v) β-Hydroxypropylcyclodextrin in water), and imaged again on days indicated.
Briefly mice were injected IP with ES2-luc cells, as ovarian cancer primarily spreads through the peritoneum, and it is the origin of primary peritoneal cancer. After four days, these mice were injected IP with luciferin and bioluminescence imaged by IVIS imager as a surrogate of tumor burden. […] Bioluminescent imaging was performed by IVIS 12 and 21 days later.
A-C) Female nude mice were inoculated IP with ES2-luc cells, a human ovarian cancer line expressing luciferase. […] The IP tumor tissue and electroporated normal muscle tissue, being spatially distinct, were identified with separate regions of interest (ROI) after simultaneous imaging with IVIS.

N#Cc1ccc(/C=C2/C(=O)/C(=C/c3ccc(C#N)cc3)C23CCNCC3)cc1 [Up284]
plasma level at 24 h [1]: low | tissue levels (brain, colon, heart, kidney, liver, lung and spleen) ([1]; 24 h): accumulated in all the tissues, particularly the lungs | additional degradation in the presence of NADPH, human liver microsomes [2]: ~ 10% | degradation in human liver microsomes without NADPH [2]: ~ 50% | % Drug Remaining NADPH Neg, Human Liver Microsomes ([2]; 0 min): 100% | % Drug Remaining NADPH Pos, Human Liver Microsomes ([2]; 0 min): 100% | % Drug Remaining NADPH Neg, Human Liver Microsomes ([2]; 30 min): 57% | % Drug Remaining NADPH Pos, Human Liver Microsomes ([2]; 30 min): 43% | % Drug Remaining NADPH Neg, Human Liver Microsomes ([2]; 60 min): 52% | % Drug Remaining NADPH Pos, Human Liver Microsomes ([2]; 60 min): 43% | other blood parameters vs vehicle [3]: did not significantly change | additional degradation in the presence of NADPH, mouse liver microsomes [4]: ~ 10% | degradation in mouse liver microsomes without NADPH [4]: ~ 50% | % Drug Remaining NADPH Neg, Mouse Liver Microsomes ([4]; 0 min): 100% | % Drug Remaining NADPH Pos, Mouse Liver Microsomes ([4]; 0 min): 100% | % Drug Remaining NADPH Neg, Mouse Liver Microsomes ([4]; 30 min): 60% | % Drug Remaining NADPH Pos, Mouse Liver Microsomes ([4]; 30 min): 45% | % Drug Remaining NADPH Neg, Mouse Liver Microsomes ([4]; 60 min): 51% | % Drug Remaining NADPH Pos, Mouse Liver Microsomes ([4]; 60 min): 38% | proton leakage (ES2 cells; ES2, 0.5 μM): did not impact | oxygen consumption rate (OCR), basal and FCCP-stimulated, and ATP production (ES2 cells; ES2, 0.5 μM, 12 h): significant decrease in OCR | extracellular acidification rate (ECAR) (ES2 cells; ES2, after 24 h treatment): trend for reduction | total lysate DUB enzymatic activity (Ub-AMC) (cellular DUB enzymes): No reduction | ES2-luc xenograft tumor burden (bioluminescence) vs vehicle ([5]; days 12 and 21, p = 0.0002): significantly reduced | overall survival vs vehicle ([5]; p = 0.005): increased overall survival
